Experiment [1] concerns the target T1, VLA-4 (Homo sapiens, UniProt P05556+P13612). Kind of experiment: Kinetic dissociation rate (koff) analysis of LDV-FITC probe on U937 cells with non-desensitizing FPR mutant. Conditions: U937 FPR ΔST, LDV-FITC 25 nM, LDV block 2 μM. The format is cell-based. Here is the method: The experiment involved sequential addition of BAY 41-2272 (100 μM, guanylyl cyclase activator) or vehicle (control) at the 0 time point, and the fluorescent LDV-FITC probe (4 nM), and CXCL8/IL-8 (20 nM) (arrows). Excess unlabelled competitor LDV (1 μM) added at the end of the experiment to determine the non-specific binding of the probe. This experiment is analogous to the one shown in panel B. One representative experiment of two experiments is shown. Curves are means of two independent determinations calculated on a point-by-point basis (n=2). […] D, Kinetic analysis of binding and dissociation of LDV-FITC probe on U937 cells stably transfected with the non-desensitizing mutant of FPR. Cells were sequentially treated with the LDV-FITC probe (25 nM, near saturation), the Gαi-coupled receptor ligand (fMLFF, 100 nM), BAY 41-2272 (guanylyl cyclase activator, 50 μM) (arrows). At time points indicated by arrows, cells were treated with excess unlabeled LDV containing small molecule (2 μM), and the dissociation of the fluorescent molecule was followed. Dissociation rate constants (koff) were obtained by fitting dissociation curves to a single exponential decay equation (as described in the text). Experiments shown in the different panels were performed using different instruments, and therefore MCF values are not identical. E, Dissociation rate values, obtained in experiments analogous to panel B, summarized as a bar graph showing mean and SEM (n=4). Colors of the dissociation curves in panel D and bars on panel E are matching. The difference between koffs for “resting” and “fMLFF activated”, and between “fMLFF activated” and “fMLFF activated and treated with BAY 41-2272” is statistically significant (P=0.0006<0.05) as calculated by one-way analysis of variance (ANOVA) using GraphPad Prism software. […]
Next, the regions of the ligand-binding curves corresponding to the dissociation of the LDV-FITC probe were fitted to a single exponential decay equation. […] The affinity state induced by guanylyl cyclase activator was quantitatively similar to the resting state before activation. […]

The target of experiment [2] is T1, VLA-4. Kind of experiment: LDV-FITC equilibrium binding to VLA-4 (Kd and calculated receptor occupancy). From the text:
Previously, we described and characterized in detail a model ligand an LDV-FITC containing small molecule ([14, 42-44], and references therein) for the detection of VLA-4 conformational regulation. This VLA-4 specific fluorescent probe was based on a highly specific α4β1-integrin inhibitor BIO1211, which contains the Leu-Asp-Val (LDV) ligand binding motif from the alternatively spliced connecting segment-1 (CS-1) peptide of cellular fibronectin [17, 45]. We established that integrin affinity changes, detected using this probe, vary in parallel with the natural VLA-4 ligand, human VCAM-1 [46]. For real-time detection of rapid integrin conformational changes, cells were treated with LDV-FITC (FIG. 2, first arrow), which was added after establishing a baseline for unstained cells, indicated on FIG. 2A as “autofluorescence”. Next, data were acquired for 2-3 minutes, and cells were activated with fMLFF (high affinity FPR ligand), CXCL12/SDF-1 (CXCR4 ligand), or CXCL8/IL-8 (CXCR2 ligand), for FPR, CXCR4, CXCR2 transfected cells, respectively (FIGS. 2A, B, and C). […] The change in occupancy was detected as a rapid increase in the mean channel fluorescence (MCF). This signal increase was sustained for the case of a non-desensitizing mutant of FRP (FIG. 2A), and reversible for the wild-type receptors (CXCR4, and CXCR2, FIG. 2B,C). Next, cells were treated with the nitric oxide donor, or vehicle (control). Acquisition was re-established, and data were acquired continuously for up to 720-840 s. […] In the absence of receptor desensitization, the effect of nitric oxide was more evident in cells transfected with a non-desensitizing mutant of FPR (vehicle, FIG. 2A). However, the effect of the nitric oxide donor was statistically significant for both wild-type GPCRs. […] To emphasize statistically the difference between control and experimental samples, standard errors of mean are indicated using error bars for every experimental point in FIG. 2B, 2C, 2D, 2E.
Kinetic analysis of the binding and dissociation of the LDV-FITC probe was described previously. […]

For experiment [3], the target named is T1, VLA-4. The settings on record: cited from earlier work.
Where [4] appears, read: 4 nM probe, calculated based on the one site binding equation.

The source of these data is patent publication US20140088034A1, “NITRIC OXIDE/cGMP PATHWAY INHIBITION OF VLA-4 RELATED CELL ADHESION” (STC.UNM, priority 2011, published 2014).

Where two headings read alike, the source gives them in different places.

T1 sequence (P13612 34-1032): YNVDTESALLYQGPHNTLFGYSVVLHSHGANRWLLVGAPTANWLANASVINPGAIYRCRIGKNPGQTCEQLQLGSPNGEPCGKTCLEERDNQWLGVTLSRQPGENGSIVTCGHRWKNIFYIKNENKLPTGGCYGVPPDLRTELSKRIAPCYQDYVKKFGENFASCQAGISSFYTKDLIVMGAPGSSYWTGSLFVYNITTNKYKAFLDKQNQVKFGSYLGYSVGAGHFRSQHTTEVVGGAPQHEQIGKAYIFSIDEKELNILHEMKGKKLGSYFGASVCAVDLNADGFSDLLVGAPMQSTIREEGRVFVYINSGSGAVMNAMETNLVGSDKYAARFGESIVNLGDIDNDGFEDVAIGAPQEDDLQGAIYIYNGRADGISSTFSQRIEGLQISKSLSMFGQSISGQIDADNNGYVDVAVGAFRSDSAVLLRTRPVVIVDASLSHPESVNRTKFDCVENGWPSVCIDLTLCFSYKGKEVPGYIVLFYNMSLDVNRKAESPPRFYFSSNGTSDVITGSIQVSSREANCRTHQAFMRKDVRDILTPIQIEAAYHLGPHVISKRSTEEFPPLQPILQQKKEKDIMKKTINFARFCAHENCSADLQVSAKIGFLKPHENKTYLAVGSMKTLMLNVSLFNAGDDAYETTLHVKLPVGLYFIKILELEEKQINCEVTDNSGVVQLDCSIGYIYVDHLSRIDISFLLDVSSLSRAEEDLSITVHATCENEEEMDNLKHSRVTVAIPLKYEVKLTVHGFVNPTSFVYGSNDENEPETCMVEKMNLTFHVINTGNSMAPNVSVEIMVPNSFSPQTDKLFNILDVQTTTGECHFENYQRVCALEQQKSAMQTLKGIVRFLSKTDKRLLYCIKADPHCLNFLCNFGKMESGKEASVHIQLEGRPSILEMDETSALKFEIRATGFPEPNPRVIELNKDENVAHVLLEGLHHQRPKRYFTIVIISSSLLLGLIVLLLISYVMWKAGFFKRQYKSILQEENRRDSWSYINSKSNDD
T1 sequence (P05556 21-798): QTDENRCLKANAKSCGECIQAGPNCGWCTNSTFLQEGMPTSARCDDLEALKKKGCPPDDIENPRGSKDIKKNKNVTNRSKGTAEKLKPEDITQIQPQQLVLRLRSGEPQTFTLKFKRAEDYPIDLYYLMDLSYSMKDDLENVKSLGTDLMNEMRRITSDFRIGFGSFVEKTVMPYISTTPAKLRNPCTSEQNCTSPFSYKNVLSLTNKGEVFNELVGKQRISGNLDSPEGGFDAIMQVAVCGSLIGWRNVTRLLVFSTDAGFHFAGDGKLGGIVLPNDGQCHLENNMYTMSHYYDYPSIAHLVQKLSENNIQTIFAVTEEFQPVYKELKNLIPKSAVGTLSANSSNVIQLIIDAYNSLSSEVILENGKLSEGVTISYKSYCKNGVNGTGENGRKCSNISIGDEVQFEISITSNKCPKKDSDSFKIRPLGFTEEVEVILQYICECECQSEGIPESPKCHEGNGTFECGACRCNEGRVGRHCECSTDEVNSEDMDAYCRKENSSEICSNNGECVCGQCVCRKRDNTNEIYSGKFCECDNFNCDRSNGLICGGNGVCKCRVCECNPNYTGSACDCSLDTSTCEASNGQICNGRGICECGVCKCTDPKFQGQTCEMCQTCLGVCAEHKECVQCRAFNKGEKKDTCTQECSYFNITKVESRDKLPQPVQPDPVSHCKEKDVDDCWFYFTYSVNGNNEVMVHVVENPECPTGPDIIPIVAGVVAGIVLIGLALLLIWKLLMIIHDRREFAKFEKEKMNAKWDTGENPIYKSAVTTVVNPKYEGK

By Kd is commonly meant a measure of binding affinity in units of concentration. On to “4-((N′-2-methylphenyl)ureido)-phenylacetyl-L-leucyl-L-aspartyl-L-valyl-L-prolyl-L-alanyl-L-alanyl-L-lysine-FITC [LDV-FITC]”, for which, on VLA-4 [1] (at rest), the “dissociation rate constant koff of LDV-FITC, resting cells” value is about 0.04 ± 0.001 s⁻¹. The “dissociation rate constant koff of LDV-FITC after cell activation by fMLFF” value at VLA-4 [1] (fMLFF 100 nM) is about 0.018 ± 0.0001 s⁻¹. Also, on VLA-4 [2] (setting [4]), the “receptor occupancy, high affinity state” value is 70-80% and the “receptor occupancy, low affinity state” value is recorded as about 25%. The “sites occupied before activation” value at VLA-4 [2] (25 nM probe, low affinity state) is reported as about 70%. The Kd at VLA-4 [3] (physiologically activated VLA-4, high affinity state, read-out: Kd for physiologically activated VLA-4 (high affinity state)) is 1 to 2 nM. Further, at VLA-4 [3] (resting VLA-4, low affinity state, read-out: Kd for binding to resting VLA-4 (low affinity state)), the Kd is about 12 nM.
